# Test results published in patent US11851681B2, “Cell preparation method” (KYOTO PREFECTURAL PUBLIC UNIVERSITY CORPORATION, priority 2015, dated 2023).
# Columns and labels:
# Assay type in all cases: cell-based
# [1] = system: human dermal fibroblasts; HDFs; test: Alizarin Red S staining and absorbance, compound panel, Examples 29-30; conditions: calcification induction medium; compounds 2 μM (Pifthrin-α 5 μM, DZnep 50 nM); day 28; FIG. 33, 34
# Protocol: The compounds added to the medium and the concentrations thereof are as follows. • I-BET151: 2 μM • Pifthrin-α: 5 μM • PD0325901: 2 μM • 2-Me-5HT: 2 μM • CX4945: 2 μM • CHIR99021: 2 μM • Forskolin: 2 μM • DZnep: 50 nM • D4476: 2 μM • SB431542: 2 μM • ALK5 i II: 2 μM.
# In the experiment of Example 29, the solution after staining with the Alizarin Red S staining solution was collected in a 96 well plate and the absorbance (OD 550 nm) was measured with an absorption spectrometer.
# [2] = system: human dermal fibroblasts; HDFs; test: Alizarin Red S staining (staining figure), fibroblast to osteoblast, Example 1; conditions: each compound 2 μM in calcification induction medium; day 24; FIG. 1
# Protocol: It was washed 3 times with sterile distilled water. […] The well after staining was washed with sterile distilled water and photographed.
# The concentrations of the compounds are as follows: • D4476: 2 μM • ALK5 inhibitor II: 2 μM • SB431542: 2 μM.
# [3] = system: human dermal fibroblasts; HDFs; test: Alizarin Red S staining (absorbance OD 550 nm), Example 2; conditions: each compound 2 μM in calcification induction medium; day 24; FIG. 2
# Protocol: (§1) The concentrations of the compounds are as follows: • D4476: 2 μM • SB431542: 2 μM • ALK5 inhibitor II: 2 μM.
# [4] = system: human dermal fibroblasts; HDFs; test: Real-time RT-PCR of Osteocalcin and Alkaline Phosphatase, Example 3; conditions: each compound 2 μM in calcification induction medium; day 24; FIG. 3
# Protocol: as §1
# [5] = system: human dermal fibroblasts; HDFs; test: Oil Red O staining, fibroblast to brown adipocyte, Example 12; conditions: compound 2 μM in addition to T3 1 nM and Rosiglitazone 1 μM, adipocyte induction medium; day 14; FIG. 12
# Protocol: (§2) The concentrations of the additives are as follows: • T3: 1 nM • Rosiglitazone: 1 μM • D4476: 2 μM • Pifithrin alpha [p53 inhibitor]: 5 μM • SB431542: 2 μM • ALK5 Inhibitor II: 2 μM.
# Then, the cells were washed with sterile distilled water and photographed with a phase contrast microscope at ×100 magnification.
# [6] = system: human dermal fibroblasts; HDFs; test: Real-time RT-PCR of CIDEA, Example 13; conditions: compound 2 μM in addition to T3 1 nM and Rosiglitazone 1 μM, adipocyte induction medium; day 14; FIG. 13
# Protocol: as §2
# [7] = system: human dermal fibroblasts; HDFs; test: Real-time RT-PCR of AdipoQ, Example 14; conditions: D4476, SB431542, ALK5 Inhibitor II 2 μM, PD0325901 1 μM, in addition to T3 and Rosiglitazone; day 14; FIG. 14
# Protocol: The concentrations of the additives are as follows: • T3: 1 nM • Rosiglitazone: 1 μM • D4476: 2 μM. • Pifithrin alpha [p53 inhibitor]: 5 μM • PD0325901: 1 μM • SB431542: 2 μM • ALK5 Inhibitor II: 2 μM.
# [8] = system: human dermal fibroblasts; HDFs; test: BODIPY staining and fluorescence intensity, Example 15; conditions: compound 2 μM in addition to T3 1 nM and Rosiglitazone 1 μM; day 14; FIG. 15A, 15B
# Protocol: The concentrations of the additives are as follows: • T3: 1 nM • Rosiglitazone: 1 μM • D4476: 2 μM • SB431541: 2 μM • ALK5 inhibitor II: 2 μM.
# The cells were fixed with 4% para-formaldehyde, washed with PBS(−), reacted for 5 min with BODIPY 493/503 (Invitrogen)/PBS solution at room temperature and washed 3 times with PBS. The cells were photographed with a fluorescence microscope at ×200 magnification and the fluorescence intensity was measured.
# [9] = system: Human normal skin-derived fibroblasts (HDFs); test: Alizarin Red S and ALP staining, absorbance, TGF-β pathway inhibitor panel, Examples 31-32; conditions: for efficiency in converting fibroblast to osteoblast (summary statement): description, conditions not given
# Protocol: On day 21, the culture medium was removed from a part of the well, washed with PBS(-), and fixed with a fixative. It was washed 3 times with sterile distilled water. […] In the experiment of Example 31, the solution after staining with the Alizarin Red S staining solution was collected in a 96 well plate and the absorbance (OD 550 nm) was measured with an absorption spectrometer.
# [10] = system: Human normal skin-derived fibroblasts (HDFs); test: Real-time RT-PCR of UCP1, four inhibitors, Example 39; conditions: 4 μM, 8 μM, 12 μM or 16 μM in adipocyte induction medium Day 1 to Day 8, then compound-free to day 14; FIG. 43
# Protocol: The addition concentration of the compound was 4 μM, 8 μM, 12 μM or 16 μM. […] Thereafter, in Day 9-Day 14, culturing was performed in a medium free of ALK5 inhibitor II, LY2157299, SB431542, D4476.
# [11] = system: Human normal skin-derived fibroblasts (HDFs); test: Immunostaining of UCP1, four inhibitors, Example 40; conditions: LY2157299 8 μM, SB431542 4 μM, D4476 4 μM, Day 1 to Day 8, day 14, FIG. 44; for conversion of fibroblast to brown adipocyte, UCP1 protein: ALK5 inhibitor II 4 μM; for staining with anti-UCP1 antibody: groups 3-6: ALK5 inhibitor II 4 μM
# Protocol: Human normal skin-derived fibroblasts (HDFs) were suspended in a general medium (DMEM added with 10% FBS). […] The adipocyte induction medium is DMEM added with 1 nM T3, 1 μM Rosiglitazone, 0.5 mM 3-isobutyl-1-methylxanthine (IBMX), 0.5 μM dexamethasone, 1 μg/mL Insulin and 10% FBS. Once every 2 days, the culture medium was exchanged with a fresh one, and culturing was performed from Day 1 to Day 8. Thereafter, from Day 9 to Day 14, the cells were cultured in an adipocyte induction medium free of ALK5 inhibitor II, LY2157299, SB431542, D4476. On day 14, the culture medium was removed by suction from each well, and washed with PBS(−). After fixing with 4% para-formaldehyde, the well was washed with PBS (−), Permanent wave Buffer (0.2% Triton-X addition PBS) was added and the well was incubated for 15 min. After washing 3 times with PBS(−), Blocking One was added, and the mixture was incubated at room temperature for 60 min. Anti-UCP-1 antibody (RD MAB6158) was added and the mixture was reacted for 2 hrs at room temperature, and washed 3 times with Wash buffer. CF488-conjugated anti-mouse Ig antibody (Biotum 20014) was added and the mixture was reacted for 2 hrs at room temperature, and washed 3 times with PBS(−). After nuclear staining with SlowFade Gold antifade reagent with DAPI manufactured by Lifetechnology, the cells were photographed with a fluorescence microscope at ×100 magnification.
# [12] = system: human dermal fibroblasts; HDFs; test: Bodipy staining in WA medium, four inhibitors, Example 48; conditions: day 12, FIG. 52; for lipid droplets stained with Bodipy, inhibitor alone: WA medium added with 16 μM compound alone; for lipid droplets stained with Bodipy / conversion to white adipocyte, inhibitor and Rosiglitazone: WA medium added with 16 μM compound and 1 μM Rosiglitazone
# [13] = system: human dermal fibroblasts; HDFs; test: Bodipy staining quantification in WA medium, four inhibitors, Example 49; conditions: 16 μM compound and 1 μM Rosiglitazone, day 12, FIG. 53
# [14] = system: human dermal fibroblasts; HDFs; test: Real-time PCR of AdipoQ, FABP4, PPAR-γ, four inhibitors with Rosiglitazone, Example 50; conditions: WA medium added with 1 μM Rosiglitazone and 16 μM compound; day 12
# Description: On day 12, RNA was recovered from the cells and, in the same manner as in Example 47, mRNA of AdipoQ, FABP4 (mature adipocyte marker), and PPAR-γ (preadipocyte marker) was quantified.
# [15] = system: Human normal skin-derived fibroblasts (HDFs); test: Real-time RT-PCR of ALP, Osteocalcin, Bonesialoprotein, Example 35; conditions: day 18, FIG. 39
# Protocol: The concentrations of the small molecule compound or cytokine added are as follows. • ALK5 i II: 4 μM • 1α,25-dihydroxy Vitamin D3 (VD3): 5 nM • Human insulin-like growth factor-1 (IGF-1): 100 ng/ml.
molecule,measurement,setting,value
Cc1[nH]c2ccc(O)cc2c1CCN [2-Me-5HT],"conversion from fibroblast to osteoblast, Alizarin Red S staining and absorbance",[1],do not induce conversion from fibroblast to osteoblast
Cc1c[nH]c(-c2cnc(NCCNc3ccc(C#N)cn3)nc2-c2ccc(Cl)cc2Cl)n1 [CHIR],"conversion from fibroblast to osteoblast, Alizarin Red S staining and absorbance",[1],do not induce conversion from fibroblast to osteoblast
"NC(=O)c1ccc(-c2nc(-c3ccc4c(c3)OCCO4)c(-c3ccccn3)[nH]2)cc1 [D4476, 4-[4-(2,3-dihydro-1,4-benzodioxin-6-yl)-5-(2-pyridinyl) 1H-imidazol-2-yl]-benzamide]","conversion of human fibroblast to osteoblast, Alizarin Red S staining (staining figure)",[2],converted to osteoblast having calcified is bone matrix production ability
same,"conversion of human fibroblast to osteoblast, Alizarin Red S staining (absorbance OD 550 nm)",[3],converted to osteoblast having calcified bone matrix production ability
same,"conversion of human fibroblast to osteoblast, Osteocalcin and Alkaline Phosphatase mRNA",[4],converted to osteoblast expressing osteocalcin and alkaline phosphatase gene
same,"conversion of fibroblast to brown adipocyte, Oil Red O staining",[5],converted fibroblast to brown adipocyte
same,"conversion of fibroblast to brown adipocytes, CIDEA mRNA",[6],converted fibroblast to brown adipocytes expressing mRNA of CIDEA gene
same,"conversion of fibroblast to brown adipocytes, AdipoQ mRNA",[7],converted fibroblast to brown adipocytes expressing mRNA of AdipoQ gene
same,"conversion of fibroblast to brown adipocytes, BODIPY staining and fluorescence intensity",[8],converted fibroblast to brown adipocytes having lipid droplets stained with BODIPY
same,"conversion from fibroblast to osteoblast, Alizarin Red S staining and absorbance",[1],induce conversion from fibroblast to osteoblast
same,efficiency in converting fibroblast to osteoblast (summary statement),[9],highly efficient in converting fibroblast to osteoblast
same,"conversion of fibroblast to brown adipocyte, UCP1 mRNA",[10],converted fibroblast to brown adipocyte strongly expressing UCP1 gene
same,"conversion of fibroblast to brown adipocyte, UCP1 protein",[11],converted fibroblast to brown adipocyte expressing UCP1 protein
same,staining with anti-UCP1 antibody,[11],many cells were stained with anti-UCP1 antibody
same,"lipid droplets stained with Bodipy, inhibitor alone",[12],only a few cells contained lipid droplets stained with Bodipy
same,"lipid droplets stained with Bodipy / conversion to white adipocyte, inhibitor and Rosiglitazone",[12],many cells were stained
same,"fat accumulation (BODIPY) / conversion to white adipocyte, co-addition of Rosiglitazone",[13],more strongly induced fat accumulation than by the addition of Rosiglitazone alone
same,conversion of human fibroblast to white adipocyte (mRNA markers),[14],converted human fibroblast to white adipocyte
Nc1nccc2c1ncn2[C@@H]1C=C(CO)C(O)[C@@H]1O (stereo partly shown) [DZnep],"conversion from fibroblast to osteoblast, Alizarin Red S staining and absorbance",[1],do not induce conversion from fibroblast to osteoblast
COc1cc2c(cc1-c1c(C)noc1C)ncc1[nH]c(=O)n([C@H](C)c3ccccn3)c12 [I-BET],"conversion from fibroblast to osteoblast, Alizarin Red S staining and absorbance",[1],do not induce conversion from fibroblast to osteoblast
O=C(NOC[C@H](O)CO)c1ccc(F)c(F)c1Nc1ccc(I)cc1F [PD0325901],"conversion of fibroblast to brown adipocytes, AdipoQ mRNA",[7],converted fibroblast to brown adipocytes expressing mRNA of AdipoQ gene
same,"conversion from fibroblast to osteoblast, Alizarin Red S staining and absorbance",[1],do not induce conversion from fibroblast to osteoblast
Cc1ccc(C(=O)Cn2c3c(sc2=N)CCCC3)cc1 [Pifthrin-α],"conversion from fibroblast to osteoblast, Alizarin Red S staining and absorbance",[1],do not induce conversion from fibroblast to osteoblast
"NC(=O)c1ccc(-c2nc(-c3ccc4c(c3)OCO4)c(-c3ccccn3)[nH]2)cc1 [SB431542, 4-[4-(1,3-Benzodioxol-5-yl)-5-(pyridin-2-yl)-1H-imidazol-2-yl]benzamide]","conversion of human fibroblast to osteoblast, Alizarin Red S staining (staining figure)",[2],converted to osteoblast having calcified is bone matrix production ability
same,"conversion of human fibroblast to osteoblast, Alizarin Red S staining (absorbance OD 550 nm)",[3],converted to osteoblast having calcified bone matrix production ability
same,"conversion of human fibroblast to osteoblast, Osteocalcin and Alkaline Phosphatase mRNA",[4],converted to osteoblast expressing osteocalcin and alkaline phosphatase gene
same,"conversion of fibroblast to brown adipocyte, Oil Red O staining",[5],converted fibroblast to brown adipocyte
same,"conversion of fibroblast to brown adipocytes, CIDEA mRNA",[6],converted fibroblast to brown adipocytes expressing mRNA of CIDEA gene
same,"conversion of fibroblast to brown adipocytes, AdipoQ mRNA",[7],converted fibroblast to brown adipocytes expressing mRNA of AdipoQ gene
same,"conversion of fibroblast to brown adipocytes, BODIPY staining and fluorescence intensity",[8],converted fibroblast to brown adipocytes having lipid droplets stained with BODIPY
same,"conversion from fibroblast to osteoblast, Alizarin Red S staining and absorbance",[1],induce conversion from fibroblast to osteoblast
same,efficiency in converting fibroblast to osteoblast (summary statement),[9],highly efficient in converting fibroblast to osteoblast
same,"conversion of fibroblast to brown adipocyte, UCP1 mRNA",[10],converted fibroblast to brown adipocyte strongly expressing UCP1 gene
same,"conversion of fibroblast to brown adipocyte, UCP1 protein",[11],converted fibroblast to brown adipocyte expressing UCP1 protein
same,staining with anti-UCP1 antibody,[11],many cells were stained with anti-UCP1 antibody
same,"lipid droplets stained with Bodipy, inhibitor alone",[12],only a few cells contained lipid droplets stained with Bodipy
same,"lipid droplets stained with Bodipy / conversion to white adipocyte, inhibitor and Rosiglitazone",[12],many cells were stained
same,"fat accumulation (BODIPY) / conversion to white adipocyte, co-addition of Rosiglitazone",[13],more strongly induced fat accumulation than by the addition of Rosiglitazone alone
same,conversion of human fibroblast to white adipocyte (mRNA markers),[14],converted human fibroblast to white adipocyte
"Fc1ccc(Cl)cc1-c1nc(Nc2ccncc2)c2nccnc2n1 [SD208, 2-(5-Chloro-2-fluorophenyl)-4-[(4-pyridyl)amino]pteridine]","conversion of human fibroblast to osteoblast, Alizarin Red S / ALP staining and absorbance","[9]; calcification induction medium, compounds 1 or 4 μM, TGF-β 10 ng/ml, day 21, FIG. 35, 36",can strongly convert human fibroblast to osteoblast
same,efficiency in converting fibroblast to osteoblast (summary statement),[9],highly efficient in converting fibroblast to osteoblast
"C=C1/C(=C\C=C2/CCC[C@]3(C)[C@@H]([C@H](C)CCCC(C)(C)O)CC[C@@H]23)C[C@@H](O)C[C@@H]1O [VD3, 1α,25-dihydroxy Vitamin D3]","mRNA expression of OC, ALK5 i II and VD3 compared to ALK5 i II",[15]; VD3 5 nM added with ALK5 i II 4 μM,significantly increased
IGF-1: Human insulin-like growth factor-1,"mRNA expression of BSP, ALK5 i II and IGF-1 compared to ALK5 i II",[15]; IGF-1 100 ng/ml added with ALK5 i II 4 μM,further significantly increased
